Assay results: patent publication US20110039816A1, “THERAPEUTIC SUBSTANCE, PHARMACEUTICAL COMPOSITION, HELICOBACTER PYLORI GROWTH INHIBITOR AND METHOD FOR CONDUCTING ANTI-HELICOBACTER THERAPY” (priority 2007, published 2011)
“Also recorded” adds a separate entry of the source.

System: H. pylori
Assay: Effect of comparator drugs and CGNC on the growth of H. pylori patient strains
Type: cell-based, Helicobacter pylori
Parameters: key to Effect on the growth of H. pylori: (+) - inhibition of growth; (−) - no inhibition of growth
Details: for Effect on growth of H. pylori: strains 782, 785, 786, 787
Protocol: The effect of the following doses of CGNC was examined: 50, 100, and 300 mg/ml. Bacteriological methods were used to conduct the study. Three doses of CGNC (50, 100 and 300 mg/ml) were used for analysis of the CGNC effect on the growth of H. pylori. Serial dilutions, of dense nutrient media containing an increasing concentration of the test substance were set up. Isolates of H. pylori inoculated on standard for this type of bacteria mediums (without CGNC) were used to control the microbial growth. The effect of the test substance was compared with the effect of the placebo (sterile saline solution—0.15 M NaCl, pH 7.0-7.2). In a comparative experiment, the effect of the antimicrobials, amoxicillin (20 μg/ml) and metronidazole (80 μg/ml), were evaluated.
Metronidazole and amoxicillin, the most common used therapeutical substances in combined anti-helicobacter therapy, were chosen as comparator-drugs. H. pylori isolated from patients (No. 782, 785, 786, 787), were used to compare the effect of CGNC (300 mg/ml), amoxicillin (20 μg/ml) and metronidazole (80 μg/ml) (Table 3). These strains were isolated from patients with chronic gastroduodenitis, gastritis associated with gastric stump, duodenal ulcer and reflux esophagitis.

SMILES | Effect on growth of H. pylori (amoxicillin 20 μg/ml) | Effect on the growth of H. pylori (strain 782 (CGD), Amoxicillin 20 μg/ml) | Effect on the growth of H. pylori (strain 785 (gastritis associated with gastric stump), Amoxicillin 20 μg/ml) | Effect on the growth of H. pylori (strain 786 (DU, reflux esophagitis), Amoxicillin 20 μg/ml) | Effect on the growth of H. pylori (strain 787 (CGD), Amoxicillin 20 μg/ml) | Effect on growth of H. pylori (metronidazole 80 μg/ml) | Effect on the growth of H. pylori (strain 782 (CGD), Metronidazole 80 μg/ml) | Effect on the growth of H. pylori (strain 785 (gastritis associated with gastric stump), Metronidazole 80 μg/ml) | Effect on the growth of H. pylori (strain 786 (DU, reflux esophagitis), Metronidazole 80 μg/ml) | Effect on the growth of H. pylori (strain 787 (CGD), Metronidazole 80 μg/ml)
CC1(C)S[C@@H]2[C@H](NC(=O)[C@H](N)c3ccc(O)cc3)C(=O)N2[C@H]1C(=O)O [Amoxicillin] | inhibited the growth; also recorded: inhibition of growth occurred | + | + | + | + |  |  |  |  | 
Cc1ncc([N+](=O)[O-])n1CCO [Metronidazole] |  |  |  |  |  | did not have an inhibiting effect; also recorded: did not inhibit the growth | − | − | − | −
